In general, IC50 refers to the midpoint of a concentration-inhibition curve.

One assay addresses human recombinant BACE1 (Homo sapiens (Human), UniProt P56817). The experiment in a line: In vitro enzymatic BACE1 FRET assay. The format is biochemical. Conditions: read-out: IC50 IP (μM) BACE1 enzyme. The gist of the method:
(§1)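 Read-out: dequenched fluorescence, excitation 488 nm, emission 590 nm, after proteolysis of a quenched peptide spanning the BACE cleavage site. Substrate at 50 nM, 1 h incubation, termination by Tris addition to neutral pH.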

The target of a further assay is human recombinant BACE2 (Homo sapiens (Human), UniProt Q9Y5Z0). The assay is described as follows: In vitro enzymatic BACE2 FRET assay. Conditions: read-out: IC50 IP (μM) BACE2 enzyme. It counts as biochemical. The gist of the method:
as §1

For assay [1], the system named is Aβ40 in conditioned medium of cells stably expressing Amyloid Precursor Protein (APP). The experiment in a line: In vitro BACE-1 cell-based assay (Aβ40 sandwich ELISA). Conditions: read-out: IC50 IP (μM) BACE1 cell. The gist of the method: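 Read-out: time-resolved fluorescence (Streptavidin-Europium) of Aβ40 captured by pAb40 and detected with biotinylated 6E10 from supernatants of APP-stable cells. Cells were exposed to compound for 24 h, 10-point dose response, top dose 100 μM or 10 μM, 0.1% DMSO. IC50 fitted to percent of control.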
Background: An ELISA detects its analyte on a solid surface through an enzyme-linked reagent.

A further assay deals with Recombinant Cat D (Homo sapiens (Human), UniProt P07339). The experiment in a line: In vitro enzymatic Cathepsin D (Cat D) FRET assay. It counts as biochemical. The note with it: read-out: IC50 IP (μM) CatD. The gist of the method:
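Human Cat D expressed in CHO cells was incubated for one hour in 0.05 M citrate pH 3.5, 5 mM CHAPS, 10% DMSO final, with 20 nM quenched FRET peptide substrate. Reactions were stopped with Tris buffer raising pH to neutrality. Cleavage was read as fluorescence at excitation 500 nm, emission 580 nm.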

Sequence of human recombinant BACE1 (P56817 46-501): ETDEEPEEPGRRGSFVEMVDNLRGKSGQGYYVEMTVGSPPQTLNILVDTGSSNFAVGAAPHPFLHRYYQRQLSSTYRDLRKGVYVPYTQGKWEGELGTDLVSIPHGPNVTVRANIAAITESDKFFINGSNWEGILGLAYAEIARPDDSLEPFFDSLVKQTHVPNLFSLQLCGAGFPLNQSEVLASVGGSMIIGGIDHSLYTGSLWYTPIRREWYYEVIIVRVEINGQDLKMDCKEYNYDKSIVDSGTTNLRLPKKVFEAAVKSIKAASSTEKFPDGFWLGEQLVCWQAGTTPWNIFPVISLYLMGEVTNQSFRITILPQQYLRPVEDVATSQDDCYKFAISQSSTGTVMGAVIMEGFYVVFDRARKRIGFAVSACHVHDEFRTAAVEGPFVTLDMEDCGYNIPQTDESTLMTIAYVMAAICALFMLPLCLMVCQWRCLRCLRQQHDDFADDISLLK
Sequence of Recombinant Cat D (P07339 65-412): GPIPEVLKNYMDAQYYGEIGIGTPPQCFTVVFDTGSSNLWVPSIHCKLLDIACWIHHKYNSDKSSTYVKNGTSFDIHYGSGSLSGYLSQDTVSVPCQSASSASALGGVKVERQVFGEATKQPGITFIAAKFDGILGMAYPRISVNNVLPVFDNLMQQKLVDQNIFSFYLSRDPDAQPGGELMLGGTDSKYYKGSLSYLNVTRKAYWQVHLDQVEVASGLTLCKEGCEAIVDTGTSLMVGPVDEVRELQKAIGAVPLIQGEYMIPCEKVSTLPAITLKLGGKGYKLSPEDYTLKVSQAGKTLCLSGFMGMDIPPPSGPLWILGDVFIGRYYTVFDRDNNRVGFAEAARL
Sequence of human recombinant BACE2 (Q9Y5Z0 63-518): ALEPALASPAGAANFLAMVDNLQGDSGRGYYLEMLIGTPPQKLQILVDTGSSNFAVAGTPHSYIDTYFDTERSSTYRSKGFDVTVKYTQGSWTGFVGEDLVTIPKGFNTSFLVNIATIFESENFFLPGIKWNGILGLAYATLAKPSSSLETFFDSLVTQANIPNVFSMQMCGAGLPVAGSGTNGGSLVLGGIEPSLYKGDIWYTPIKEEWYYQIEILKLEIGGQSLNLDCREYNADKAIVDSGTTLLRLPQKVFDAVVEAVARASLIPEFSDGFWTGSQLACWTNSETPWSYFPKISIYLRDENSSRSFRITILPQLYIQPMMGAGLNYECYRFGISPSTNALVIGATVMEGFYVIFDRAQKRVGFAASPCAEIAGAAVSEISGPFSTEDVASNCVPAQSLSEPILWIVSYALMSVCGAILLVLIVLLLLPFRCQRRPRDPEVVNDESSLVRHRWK

Turning to `CC(C)Oc1cnc2c(Nc3cc(F)c(F)c([C@@]4(C)N=C(N)S[C@@]5(C(F)F)C[C@@H]45)c3)nccc2n1` [Example 876, N-(3-((1S,5S,6S)-3-amino-1-(difluoromethyl)-5-methyl-2-thia-4-azabicyclo[4.1.0]hept-3-en-5-yl)-4,5-difluorophenyl)-2-(1-methylethoxy)pyrido[3,4-b]pyrazin-5-amine], the IC50 on human recombinant BACE1 was determined as 0.0801 µM; at human recombinant BACE2, 0.912 µM; in assay [1], 0.587 µM; at Recombinant Cat D, 223 µM.

On to `Cc1nnc(COc2cnc3c(Nc4cc(F)c(F)c([C@@]5(C)N=C(N)S[C@@]6(C(F)F)C[C@@H]56)c4)nccc3n2)o1` [Example 877, N-(3-((1S,5S,6S)-3-amino-1-(difluoromethyl)-5-methyl-2-thia-4-azabicyclo[4.1.0]hept-3-en-5-yl)-4,5-difluorophenyl)-2-((5-methyl-1,3,4-oxadiazol-2-yl)methoxy)pyrido[3,4-b]pyrazin-5-amine], for which the IC50 at human recombinant BACE1 came out at 0.011 µM; at human recombinant BACE2, 0.338 µM; in assay [1], 0.0294 µM; at Recombinant Cat D, 343 µM.

For `CN(C)C(=O)COc1cnc2c(Nc3cc(F)c(F)c([C@@]4(C)N=C(N)S[C@@]5(C(F)F)C[C@@H]45)c3)nccc2n1` [Example 878, 2-((5-((3-((1S,5S,6S)-3-amino-1-(difluoromethyl)-5-methyl-2-thia-4-azabicyclo[4.1.0]hept-3-en-5-yl)-4,5-difluorophenyl)amino)pyrido[3,4-b]pyrazin-2-yl)oxy)-N,N-dimethylacetamide], the IC50 stood at 0.231 µM at human recombinant BACE1, 0.353 µM at human recombinant BACE2, 1.07 µM in assay [1] and 171 µM on Recombinant Cat D.

Consider `C#C[C@H](C)Oc1cnc2c(Nc3ccc(F)c([C@@]4(CF)N=C(N)S[C@@]5(CF)C[C@H]54)c3)nccc2n1` [Example 879, N-(3-((1S,5S,6S)-3-amino-1,5-bis(fluoromethyl)-2-thia-4-azabicyclo[4.1.0]hept-3-en-5-yl)-4-fluorophenyl)-2-(((1S)-1-methyl-2-propyn-1-yl)oxy)pyrido[3,4-b]pyrazin-5-amine], for which the IC50 came out at 0.00107 µM on human recombinant BACE1, 0.282 µM at human recombinant BACE2, 0.0179 µM in assay [1] and 2690 µM on Recombinant Cat D.

As for `Cc1noc(COc2cnc3c(Nc4ccc(F)c([C@@]5(CF)N=C(N)S[C@@]6(CF)C[C@H]65)c4)nccc3n2)n1` [Example 880, N-(3-((1S,5S,6S)-3-amino-1,5-bis(fluoromethyl)-2-thia-4-azabicyclo[4.1.0]hept-3-en-5-yl)-4-fluorophenyl)-2-((3-methyl-1,2,4-oxadiazol-5-yl)methoxy)pyrido[3,4-b]pyrazin-5-amine], the 50% inhibitory concentration (IC50) is 0.00452 µM on human recombinant BACE1, 0.27 µM at human recombinant BACE2, 0.0193 µM in assay [1] and 1110 µM on Recombinant Cat D.

Take `COC[C@]12C[C@H]1[C@@](C)(c1cc(Nc3nccc4nc(OCc5ncccn5)cnc34)cc(F)c1F)N=C(N)S2` [Example 881, N-(3-((1S,5S,6S)-3-amino-1-(methoxymethyl)-5-methyl-2-thia-4-azabicyclo[4.1.0]hept-3-en-5-yl)-4,5-difluorophenyl)-2-(2-pyrimidinylmethoxy)pyrido[3,4-b]pyrazin-5-amine]: the IC50 on human recombinant BACE1 turned out to be 0.00936 µM; at human recombinant BACE2, 0.14 µM; in assay [1], 0.00819 µM; at Recombinant Cat D it was 349 µM.

With `COC[C@]12C[C@H]1[C@@](C)(c1cc(Nc3nccc4nc(OCc5nc(C)no5)cnc34)cc(F)c1F)N=C(N)S2` [Example 882, N-(3-((1S,5S,6S)-3-amino-1-(methoxymethyl)-5-methyl-2-thia-4-azabicyclo[4.1.0]hept-3-en-5-yl)-4,5-difluorophenyl)-2-((3-methyl-1,2,4-oxadiazol-5-yl)methoxy)pyrido[3,4-b]pyrazin-5-amine], the IC50 on human recombinant BACE1 was found to be 0.00778 µM; at human recombinant BACE2, 0.381 µM; in assay [1] it was 0.0204 µM; on Recombinant Cat D, 911 µM.

Regarding `Cc1nc(COc2cnc3c(Nc4cc(F)c(F)c([C@@]5(C)N=C(N)S[C@@]6(C(F)F)C[C@@H]56)c4)nccc3n2)no1` [Example 883, N-(3-((1S,5S,6S)-3-amino-1-(difluoromethyl)-5-methyl-2-thia-4-azabicyclo[4.1.0]hept-3-en-5-yl)-4,5-difluorophenyl)-2-((5-methyl-1,2,4-oxadiazol-3-yl)methoxy)pyrido[3,4-b]pyrazin-5-amine], the IC50 on human recombinant BACE1 was 0.000316 µM; at human recombinant BACE2, 0.091 µM; in assay [1], 0.0133 µM; at Recombinant Cat D it was 363 µM.

For the compound `C[C@]1(c2cc(Nc3nccc4nc(OCc5ncccn5)cnc34)cc(F)c2F)N=C(N)S[C@@]2(C(F)F)C[C@@H]12` [Example 884, N-(3-((1S,5S,6S)-3-amino-1-(difluoromethyl)-5-methyl-2-thia-4-azabicyclo[4.1.0]hept-3-en-5-yl)-4,5-difluorophenyl)-2-(2-pyrimidinylmethoxy)pyrido[3,4-b]pyrazin-5-amine], the IC50 at human recombinant BACE1 is 0.00427 µM; on human recombinant BACE2, 0.13 µM; in assay [1], 0.0119 µM; on Recombinant Cat D it was over 400 µM.

Consider `COC[C@]12C[C@H]1[C@@](C)(c1cc(Nc3nccc4nc(OCc5noc(C)n5)cnc34)cc(F)c1F)N=C(N)S2` [Example 885, N-(3-((1S,5S,6S)-3-amino-1-(methoxymethyl)-5-methyl-2-thia-4-azabicyclo[4.1.0]hept-3-en-5-yl)-4,5-difluorophenyl)-2-((5-methyl-1,2,4-oxadiazol-3-yl)methoxy)pyrido[3,4-b]pyrazin-5-amine], for which the IC50 at human recombinant BACE1 was 0.00223 µM; at human recombinant BACE2, 0.143 µM; in assay [1], 0.00823 µM; at Recombinant Cat D, 592 µM.

On to `Cc1nc(COc2cnc3c(Nc4cc(F)c(F)c([C@@]5(C)N=C(N)S[C@@]6(C(F)F)C[C@@H]56)c4)nccc3n2)c(C)o1` [Example 886, N-(3-((1S,5S,6S)-3-amino-1-(difluoromethyl)-5-methyl-2-thia-4-azabicyclo[4.1.0]hept-3-en-5-yl)-4,5-difluorophenyl)-2-((2,5-dimethyl-1,3-oxazol-4-yl)methoxy)pyrido[3,4-b]pyrazin-5-amine], for which the half-maximal inhibitory concentration (IC50) came out at 0.0011 µM at human recombinant BACE1, 0.0278 µM on human recombinant BACE2, 0.0411 µM in assay [1] and 136 µM on Recombinant Cat D.

With `Cc1noc(COc2cnc3c(Nc4cc(F)c(F)c([C@@]5(C)N=C(N)S[C@@]6(C(F)F)C[C@@H]56)c4)nccc3n2)n1` [Example 887, N-(3-((1S,5S,6S)-3-amino-1-(difluoromethyl)-5-methyl-2-thia-4-azabicyclo[4.1.0]hept-3-en-5-yl)-4,5-difluorophenyl)-2-((3-methyl-1,2,4-oxadiazol-5-yl)methoxy)pyrido[3,4-b]pyrazin-5-amine], the 50% inhibitory concentration (IC50) on human recombinant BACE1 was 0.00295 µM; at human recombinant BACE2 it was 0.317 µM; in assay [1], 0.0442 µM; at Recombinant Cat D, over 400 µM.

As to `Cc1cnc(COc2cnc3c(Nc4cc(F)c(F)c([C@@]5(C)N=C(N)S[C@@]6(C(F)F)C[C@@H]56)c4)nccc3n2)o1` [Example 888, N-(3-((1S,5S,6S)-3-amino-1-(difluoromethyl)-5-methyl-2-thia-4-azabicyclo[4.1.0]hept-3-en-5-yl)-4,5-difluorophenyl)-2-((5-methyl-1,3-oxazol-2-yl)methoxy)pyrido[3,4-b]pyrazin-5-amine], the IC50 at human recombinant BACE1 turned out to be 0.00209 µM; on human recombinant BACE2, 0.0581 µM; in assay [1], 0.0218 µM; on Recombinant Cat D it was 71.9 µM.

Consider `Cc1nnc(COc2cnc3c(Nc4cc(F)c(F)c([C@@]5(C)N=C(N)S[C@@]6(C(F)F)C[C@@H]56)c4)nccc3n2)s1` [Example 889, N-(3-((1S,5S,6S)-3-amino-1-(difluoromethyl)-5-methyl-2-thia-4-azabicyclo[4.1.0]hept-3-en-5-yl)-4,5-difluorophenyl)-2-((5-methyl-1,3,4-thiadiazol-2-yl)methoxy)pyrido[3,4-b]pyrazin-5-amine], for which the IC50 at human recombinant BACE1 came out at 0.0418 µM; on human recombinant BACE2, 1.41 µM; in assay [1] it was 0.252 µM; on Recombinant Cat D, 306 µM.

In the case of `C[C@@H](Oc1cnc2c(Nc3cc(F)c(F)c([C@@]4(C)N=C(N)S[C@@]5(C(F)F)C[C@@H]45)c3)nccc2n1)c1ncco1` [Example 891, N-(3-((1S,5S,6S)-3-amino-1-(difluoromethyl)-5-methyl-2-thia-4-azabicyclo[4.1.0]hept-3-en-5-yl)-4,5-difluorophenyl)-2-((1 R)-1-(1,3-oxazol-2-yl)ethoxy)pyrido[3,4-b]pyrazin-5-amine], the IC50 was found to be 0.177 µM at human recombinant BACE1, 1.09 µM at human recombinant BACE2, 2.88 µM in assay [1] and 984 µM at Recombinant Cat D.

Regarding `C[C@H](Oc1cnc2c(Nc3cc(F)c(F)c([C@@]4(C)N=C(N)S[C@@]5(C(F)F)C[C@@H]45)c3)nccc2n1)c1ncco1` [Example 892, N-(3-((1S,5S,6S)-3-amino-1-(difluoromethyl)-5-methyl-2-thia-4-azabicyclo[4.1.0]hept-3-en-5-yl)-4,5-difluorophenyl)-2-((1 S)-1-(1,3-oxazol-2-yl)ethoxy)pyrido[3,4-b]pyrazin-5-amine], the IC50 stood at 0.00278 µM at human recombinant BACE1, 0.848 µM at human recombinant BACE2, 0.056 µM in assay [1] and 873 µM at Recombinant Cat D.

(Values after US20160046618A1, “Cyclopropyl Fused Thiazin-2-Amine Compounds as Beta-Secretase Inhibitors and Methods of Use” (AMGEN INC., priority 2014, published 2016).)
